{"source": "patent US5770363A", "about": "“Methods for diagnosing human male infertility” (priority 1995, dated 1998)", "key": {"[1]": {"tested_on": "permeabilized human sperm", "test": "DTT (XEIM) pretreatment of permeabilized human sperm before HSAA", "format": "cell-based", "conditions": "50 mM DTT in XEIM, 45 minutes on ice", "method": "On the day that the diagnostic method is to be performed, the samples are incubated for 30 minutes at 37° C.; each sample is then suspended in 10 ml of nuclear isolation medium (NIM, 200 mM sucrose, 2.4 mM MgCl2, 10 mM Tris-Hcl and 5 mM maleic acid, pH 7.4). A sperm count is taken and an aliquot (containing 20 million sperm) is pelleted in a centrifuge for 10 minutes at 400×g, then resuspended in 10 ml of NIM containing 0.05% lysolecithin and 1 μg/ml soybean trypsin inhibitor. The mixture is kept at room temperature for 5 minutes and the sperm repelleted as before, then washed, first in NIM with 3% BSA and then with NIM containing 0.4% BSA, as described by Lohka and Masui^1. Sperm will finally be suspended in Xenopus Extract Isolation Medium (XEIM, 10 mM Tris-HCL, pH 7.5, 1.5 mM MgCl2, 100 mM KCl and 50 mM DTT) at a concentration of 25,000 sperm/μl and kept on ice (between 0° C. and 4° C.) for 45 minutes before mixing with the frog egg extract. […] Such may be the result of reducing the protamines that in mammalian sperm are cross-linked by intermolecular disulfide bonds.^67 […]"}, "[2]": {"tested_on": "male reproductive system", "conditions": "in vivo; cited from earlier work"}, "[3]": {"tested_on": "human sperm nuclei (chromatin decondensation)", "test": "Human sperm activation assay (HSAA): chromatin decondensation of chemically treated, permeabilized human sperm in Xenopus laevis egg extract", "format": "cell-based", "conditions": "for effect on sperm chromatin decondensation, in words (SEGS): SEGS-treated human sperm in vitro; for effect on decondensation, in words (hydroxylamine alone): 5 μM hydroxylamine; for reversal of SEGS crosslinks / restoration of decondensation, in words: SEGS-treated sperm, then hydroxylamine"}, "[4]": {"tested_on": "DNA polymerase alpha", "conditions": "cited from earlier work"}, "[5]": {"tested_on": "human sperm nuclei", "test": "HSAA with frog egg extract ± aphidicolin (decondensation, recondensation, DNA synthesis of sperm nuclei)", "format": "cell-based", "method": "A HSAA will be set up using normal control sperm. After addition of the sperm to the egg extract containing BrdUrd (10 μM, 92) in place of ^3 H-TTP, aliquots will be taken at 15 minute time intervals throughout the 3 hours of the HSAA, with cytopreps made as previously described. However, instead of performing autoradiography, the BrdUrd staining protocol of Royere et al (1988)^131, which reference is specifically incorporated herein by reference for this purpose, will be used. The cytopreps will be fixed in cold methanol-acetic acid (3:1 v/v) followed by an RNase treatment.\nThe procedure requires that the DNA be partially denatured to expose incorporated BrdUrd to the specific antibody. The anti-BrdUrd antibodies that have been developed so far only bind BrdUrd in single-stranded DNA. The DNA-denaturing step will be done by placing the cytoprep slides in Copeland jars containing distilled water at 95° C. for 10 minutes. The slides will then be transferred into Copeland jars containing ice cold distilled water for 2 minutes and the sperm nuclei stained using anti-BrdUrd antibody (Boehringer Mannheim, mouse IgG) in PBS as the manufacturer's recommended dilution, followed by rhodamine-conjugated Goat anti-mouse IgG. The stained nuclei will be analyzed individually in our image analysis system.\nAphidicolin is described in Ikegami et al (1978)^101. This study will use sperm shown previously to respond normally in the HSAA.\nFluorescence intensities will be determined as previously described and plotted as fluorescence units above background fluorescence.\nWe will run a duplicate HSAA±aphidicolin (10 μg/ml), except minus tritiated thymidine triphosphate. After incubation, the sperm will be washed in PBS, fixed with 70% ethanol, centrifuged, and the fixative removed. The sperm will be resuspended in one volume of pretreatment solution (0.2M citric acid and 0.5% Tween 20) and incubated at RT for 20 minutes with gentle shaking. Subsequently, 9 volumes of the staining solution containing […] hydrogen phosphate and 5 μM 4', 6-diamidino-2-phenylindole (DAPI) will be added to raise the pH to ~7.0 and stain the DNA. The stained cells are stable for 24-48 hours, so can be shipped and/or transported by PI to Dr. Manimekalai's Laboratory where we will obtain flow cytometric histograms of the DNA content of the sperm nuclei. […] Estimated DNA synthesis for the sperm nuclei incubated in extract containing aphidicolin will be determined, and determine if it is in the 20-30% range (observed using the autoradiographic approach) when compared to the estimated DNA synthesis for the sperm nuclei incubated in extract without aphidicolin. […] Staining approaches that can be followed by quantitative flow cytometry include the use of Hoechst 33342 (64) and acridine orange (96)."}, "[6]": {"tested_on": "human sperm nuclei", "conditions": "extract containing aphidicolin; cited from earlier work"}, "[7]": {"tested_on": "rats", "conditions": "cited from earlier work"}}, "note": "“And” between values parts separate entries of the source, which are not always exact repeats. Equal entries are not always repeated. “Also recorded” adds a separate entry of the source."}
{"molecule": "O[C@H](CS)[C@H](O)CS", "note": "(racemic) [DTT, Dithiothreitol]", "values": [{"measurement": "effect of pretreatment on decondensation and DNA synthesis events", "setting": "[1]", "value": "enhance the decondensation and DNA synthesis \"activation\" events"}]}
{"molecule": "CS(=O)(=O)OCCCCOS(C)(=O)=O", "note": "[Busulfan]", "values": [{"measurement": "male reproductive toxicity, in words", "setting": "[2]", "value": "kills reserve and differentiating operamatogonia and reserve stem cell populations in the testis"}]}
{"molecule": "O=C(CCC(=O)ON1C(=O)CC(S(=O)(=O)O)C1=O)OCCOC(=O)CCC(=O)ON1C(=O)CC(S(=O)(=O)O)C1=O", "note": "(stereo not drawn) [SEGS]", "values": [{"measurement": "inhibition at 3400 µM", "setting": "[3]; Homo sapiens, Sperm, 3.4 mM SEGS, read-out: sperm in which decondensation was prevented", "value": "> 75", "unit": "%"}, {"measurement": "effect on sperm chromatin decondensation, in words (SEGS)", "setting": "[3]", "value": "abnormal decondensation responses; also recorded: abnormal chromatin decondensation; also recorded: did not decondense; also recorded: do not decondense"}, {"measurement": "effect on sperm chromatin decondensation, in words (SEGS)", "setting": "[3]; listed as SULFO-EGS", "value": "block decondensation"}, {"measurement": "level to which decondensation is inhibited", "setting": "[3]; as low as, permeabilized sperm", "value": "20 % of the control"}]}
{"molecule": "O=C(O)c1cc(/N=N/c2ccc(S(=O)(=O)Nc3ccccn3)cc2)ccc1O", "note": "[Sulfasalazine]", "values": [{"measurement": "male reproductive toxicity, in words", "setting": "[2]", "value": "reduced sperm count and fertilizing capability affected in treated patients"}]}
{"molecule": "C[C@@]1(CO)[C@H](O)CC[C@@]2(C)[C@H]1CC[C@H]1C[C@@H]3C[C@@]12CC[C@]3(O)CO", "note": "[aphidicolin]", "values": [{"measurement": "inhibition of DNA polymerase alpha", "setting": "[4]", "value": "known inhibitor of DNA polymerase alpha"}, {"measurement": "% labelled nuclei in extract containing aphidicolin / % labelled nuclei without aphidicolin × 100, expected", "setting": "[5]; aphidicolin 10 μg/ml, 2 hours, autoradiography", "value": "20-30%"}, {"measurement": "DNA synthesis", "setting": "[5]; extract containing aphidicolin", "value": "blocked"}, {"measurement": "decondensation of sperm nuclei", "setting": "[5]; extract containing aphidicolin", "value": "normal"}, {"measurement": "recondensation of sperm nuclei", "setting": "[5]; extract containing aphidicolin", "value": "normal"}, {"measurement": "DNA synthesis (previously demonstrated, ref. 17)", "setting": "[6]", "value": "blocked"}, {"measurement": "decondensation of sperm nuclei (previously demonstrated, ref. 17)", "setting": "[6]", "value": "normal"}, {"measurement": "recondensation of sperm nuclei (previously demonstrated, ref. 17)", "setting": "[6]", "value": "normal"}]}
{"molecule": "O=P1(N(CCCl)CCCl)NCCCO1", "note": "(stereo not drawn) [cyclophosphamide]", "values": [{"measurement": "effect on pre- and postimplantation loss", "setting": "[7]", "value": "increasing pre- and postimplantation loss"}, {"measurement": "decondensation of sperm from treated rats", "setting": "[7]; six weeks treatment", "value": "do not decondense"}]}
{"molecule": "NO", "note": "[hydroxylamine]", "values": [{"measurement": "effect on decondensation, in words (hydroxylamine alone)", "setting": "[3]", "value": "normal decondensation; also recorded: no effect on decondensation"}, {"measurement": "sperm decondensed, hydroxylamine given alone", "setting": "[3]; 5 μM hydroxylamine 5 hours, pH 8.5, 15 minutes in the extract", "value": "92.0±2.8", "unit": "%"}, {"measurement": "effect on decondensation, in words (hydroxylamine alone)", "setting": "[3]; listed as Hydroxylamine", "value": "no effect"}, {"measurement": "sperm decondensed after crosslinking with SEGS and then treatment with hydroxylamine", "setting": "[3]; 3.4 mM SEGS 30 min, then 5 μM hydroxylamine 5 hours, 15 minutes in the extract", "value": "76% and 76.0±5.9%"}, {"measurement": "reversal of SEGS crosslinks / restoration of decondensation, in words", "setting": "[3]", "value": "restored, normal decondensation; also recorded: able to remove the crosslinker; also recorded: able to reverse most of the crosslinks; also recorded: reversed the damage"}, {"measurement": "reversal of SEGS crosslinks / restoration of decondensation, in words", "setting": "[3]; listed as Hydroxylamine", "value": "restore normal decondensation"}, {"measurement": "effect on decondensation, in words (higher hydroxylamine concentrations)", "setting": "[3]; hydroxylamine higher than 5 μM", "value": "adverse effect on decondensation"}]}
